From patent publication US8829011B2 (Janssen Pharmaceutica NV, priority 2008, dated 2014)
pKi: −log10 of the molar value.

Columns and labels:
rat 5-HT7a receptor = target: T1, rat 5-HT7a receptor (Rattus norvegicus, UniProt P32305); test: Affinity for 5-HT7 receptor binding sites (competition radioligand binding, [3H]5-CT); details: membranes of HEK-293 cells with rat 5-HT7a; 1 nM [3H]5-CT; * = tested as hydrochloride salt
T1 construct: expressed in transfected cells; host or cells: HEK-293
Method in brief: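 Membranes from HEK-293 cells stably expressing rat 5-HT7a receptor, in 50 mM Tris-HCl pH 7.5 with 5 mM EDTA, incubated 60 min at RT with 1 nM [3H]5-CT and increasing compound; nonspecific binding defined with 10 μM 5-HT. Bound radioactivity read after rapid filtration; inhibition curves fitted by nonlinear regression; triplicate.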

[1] = target: T2, human recombinant 5-HT6 receptor (Homo sapiens, UniProt P50406); test: Affinity for 5-HT6 receptor binding sites (competitive radioligand binding, [3H]LSD); details: membranes of HEK-293 with h5-HT6, * = tested as hydrochloride salt
T2 construct: expressed in transfected cells; host or cells: HEK-293
T2 sequence (P50406 whole entry): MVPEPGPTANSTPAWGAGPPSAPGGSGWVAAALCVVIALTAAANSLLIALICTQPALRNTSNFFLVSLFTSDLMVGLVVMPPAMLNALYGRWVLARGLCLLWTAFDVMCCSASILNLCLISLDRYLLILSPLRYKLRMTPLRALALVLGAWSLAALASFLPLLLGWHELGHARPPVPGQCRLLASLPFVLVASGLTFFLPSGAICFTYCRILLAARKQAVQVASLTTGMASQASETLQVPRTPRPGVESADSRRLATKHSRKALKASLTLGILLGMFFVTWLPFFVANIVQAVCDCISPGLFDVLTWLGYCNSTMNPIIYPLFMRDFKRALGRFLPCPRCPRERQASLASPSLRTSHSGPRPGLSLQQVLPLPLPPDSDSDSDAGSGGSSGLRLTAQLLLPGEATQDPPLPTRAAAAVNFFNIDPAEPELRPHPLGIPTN
Method in brief: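 Membranes from HEK-293 cells stably expressing human 5-HT6, competition against [3H]LSD; nonspecific binding defined with 1 μM clozapine. DMSO ≤0.4% final. Inhibition curves fitted by nonlinear regression.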

[2] = target: T3, human recombinant 5-HT2B receptor (Homo sapiens, UniProt P41595); test: Affinity for 5-HT2B receptor binding sites (competitive radioligand binding, [3H]mesulergine); details: membranes of CHO with h5-HT2B, * = tested as hydrochloride salt
T3 construct: expressed in transfected cells; host or cells: CHO
T3 sequence (P41595 whole entry): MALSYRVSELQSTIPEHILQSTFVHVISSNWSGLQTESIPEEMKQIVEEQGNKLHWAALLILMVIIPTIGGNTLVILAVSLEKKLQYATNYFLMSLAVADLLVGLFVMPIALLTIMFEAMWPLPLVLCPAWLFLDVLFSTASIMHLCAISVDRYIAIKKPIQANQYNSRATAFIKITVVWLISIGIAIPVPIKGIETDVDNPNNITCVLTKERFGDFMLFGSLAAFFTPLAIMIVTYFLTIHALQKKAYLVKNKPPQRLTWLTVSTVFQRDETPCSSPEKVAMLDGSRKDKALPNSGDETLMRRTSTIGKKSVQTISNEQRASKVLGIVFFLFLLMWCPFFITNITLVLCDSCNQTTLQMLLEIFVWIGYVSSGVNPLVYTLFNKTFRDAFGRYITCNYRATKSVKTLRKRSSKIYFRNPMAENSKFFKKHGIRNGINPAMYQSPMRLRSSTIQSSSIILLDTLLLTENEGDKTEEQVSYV
Method in brief: (§1)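 Membranes from NIH3T3 cells stably expressing h5-HT2A or CHO cells stably expressing h5-HT2B/h5-HT2C; [3H]ketanserin used for 5-HT2A, [3H]mesulergine for 5-HT2B/2C. Compounds from 10 mM DMSO stocks, final DMSO ≤0.4%. Affinity from sigmoidal inhibition curves fitted by nonlinear regression.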

[3] = target: T4, human recombinant 5-HT2A receptor (Homo sapiens, UniProt P28223); test: Affinity for 5-HT2A receptor binding sites (competitive radioligand binding, [3H]ketanserin); details: membranes of NIH3T3 with h5-HT2A, * = tested as hydrochloride salt
T4 construct: expressed in transfected cells; host or cells: NIH3T3
T4 sequence (P28223 whole entry): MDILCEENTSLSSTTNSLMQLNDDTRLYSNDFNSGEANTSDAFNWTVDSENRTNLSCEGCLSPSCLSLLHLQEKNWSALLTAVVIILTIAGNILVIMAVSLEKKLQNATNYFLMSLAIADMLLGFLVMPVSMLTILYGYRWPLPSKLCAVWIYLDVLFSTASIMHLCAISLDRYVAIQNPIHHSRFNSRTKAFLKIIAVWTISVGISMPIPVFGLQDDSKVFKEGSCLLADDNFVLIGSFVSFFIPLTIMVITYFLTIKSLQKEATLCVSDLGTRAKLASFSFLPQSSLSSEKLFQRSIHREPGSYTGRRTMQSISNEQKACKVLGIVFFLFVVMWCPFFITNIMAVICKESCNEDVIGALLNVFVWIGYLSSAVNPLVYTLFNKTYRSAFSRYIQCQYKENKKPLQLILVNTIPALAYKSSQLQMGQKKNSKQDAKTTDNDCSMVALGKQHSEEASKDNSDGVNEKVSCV
Method in brief: as §1

[4] = target: T5, human recombinant 5-HT2C receptor (Homo sapiens, UniProt P28335); test: Affinity for 5-HT2C receptor binding sites (competitive radioligand binding, [3H]mesulergine); details: membranes of CHO with h5-HT2C, * = tested as hydrochloride salt
T5 construct: expressed in transfected cells; host or cells: CHO
T5 sequence (P28335 33-458): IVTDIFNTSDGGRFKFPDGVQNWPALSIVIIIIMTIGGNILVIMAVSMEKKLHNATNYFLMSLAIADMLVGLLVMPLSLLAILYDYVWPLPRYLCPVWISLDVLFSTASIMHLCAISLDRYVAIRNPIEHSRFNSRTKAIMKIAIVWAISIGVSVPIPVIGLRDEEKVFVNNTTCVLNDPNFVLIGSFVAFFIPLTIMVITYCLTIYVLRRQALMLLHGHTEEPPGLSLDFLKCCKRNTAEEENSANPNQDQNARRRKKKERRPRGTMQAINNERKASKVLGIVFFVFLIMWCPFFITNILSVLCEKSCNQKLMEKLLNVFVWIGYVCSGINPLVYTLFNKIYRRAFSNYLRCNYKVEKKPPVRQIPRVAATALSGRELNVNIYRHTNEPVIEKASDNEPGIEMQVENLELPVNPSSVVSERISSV
Method in brief: as §1

T1 sequence (P32305 whole entry): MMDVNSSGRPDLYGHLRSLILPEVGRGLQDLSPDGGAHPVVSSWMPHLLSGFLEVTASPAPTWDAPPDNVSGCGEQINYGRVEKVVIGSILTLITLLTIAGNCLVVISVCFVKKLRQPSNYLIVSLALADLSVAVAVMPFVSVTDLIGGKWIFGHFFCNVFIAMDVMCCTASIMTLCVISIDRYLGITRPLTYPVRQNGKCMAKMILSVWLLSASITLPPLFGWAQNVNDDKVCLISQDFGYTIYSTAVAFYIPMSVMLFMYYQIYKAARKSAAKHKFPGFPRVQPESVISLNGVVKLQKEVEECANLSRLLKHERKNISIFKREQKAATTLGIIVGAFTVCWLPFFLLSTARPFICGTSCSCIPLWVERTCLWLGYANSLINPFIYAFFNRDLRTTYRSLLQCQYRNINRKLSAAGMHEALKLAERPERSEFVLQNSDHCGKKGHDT

Compound | pKi (rat 5-HT7a receptor) | pKi [1] | pKi [2] | pKi [3] | pKi [4]
CCN(CC)c1nc2c(c(-c3ccc(C#N)cc3)n1)CCCNC2 [Example 4, 4-(2-Diethylamino-6,7,8,9-tetrahydro-5H-pyrimido[4,5-c]azepin-4-yl)-benzonitrile] | 6.04 | 5.43 | 7.00 | 6.62 | 5.05
CCN(CC)c1nc2c(c(-c3ccc(Cl)cc3)n1)CCNCC2 [Example 60, [4-(4-Chloro-phenyl)-6,7,8,9-tetrahydro-5H-pyrimido[4,5-d]azepin-2-yl]-diethyl-amine] | 7.39 | < 5.00 | 8.00 | 7.70 | 7.00
CCNc1nc2c(c(-c3ccc(C)cc3)n1)CNCC2 [Example 48, Ethyl-(4-p-tolyl-5,6,7,8-tetrahydro-pyrido[4,3-d]pyrimidin-2-yl)-amine] | < 5.00 | < 5.00 | 5.52 | 5.70 | < 5.00
Fc1ccc(-c2nc(N3CCOCC3)nc3c2CNCC3)cc1 [Example 42, 4-(4-Fluoro-phenyl)-2-morpholin-4-yl-5,6,7,8-tetrahydro-pyrido[4,3-d]pyrimidine] | < 5.00 | 5.01 | 5.69 | 7.70 | 6.30
